Measurements from the OligoGym collection.
Oligonucleotides are written 5' to 3', each unit as a sugar letter and its base; * is a phosphorothioate linkage, no mark a phosphodiester; rarer units and linkages stand in square brackets, end groups in braces. Plain capitals give the bases only. d = 2'-deoxy (DNA); r = 2'-OH (RNA)

Biological target: UBE2C
Experiment: reporter assay of Huesken 2005
Conditions: siRNA
Also: test concentration or dose not given here.

Substance	normalised inhibition (eCFP-eYFP dual reporter) [%]
sense rArArCrArUrUrGrArUrArGrUrCrCrCrUrUrGrAdTdT / antisense rUrCrArArGrGrGrArCrUrArUrCrArArUrGrUrUdGdG	93.1
sense rArArGrArCrCrUrGrArGrGrUrArUrArArGrCrUdTdT / antisense rArGrCrUrUrArUrArCrCrUrCrArGrGrUrCrUrUdCdA	46.4
sense rArArGrUrUrCrCrUrCrArCrGrCrCrCrUrGrCrUdTdT / antisense rArGrCrArGrGrGrCrGrUrGrArGrGrArArCrUrUdCdA	51
sense rArArUrGrCrGrCrCrCrArCrArGrUrGrArArGrUdTdT / antisense rArCrUrUrCrArCrUrGrUrGrGrGrCrGrCrArUrUdGdT	57.6
sense rArCrArArUrGrCrGrCrCrCrArCrArGrUrGrArAdTdT / antisense rUrUrCrArCrUrGrUrGrGrGrCrGrCrArUrUrGrUdAdA	93.7
sense rArCrArCrArCrArUrGrCrUrGrCrCrGrArGrCrUdTdT / antisense rArGrCrUrCrGrGrCrArGrCrArUrGrUrGrUrGrUdTdC	78
sense rArCrArGrUrArUrArUrGrArArGrArCrCrUrGrAdTdT / antisense rUrCrArGrGrUrCrUrUrCrArUrArUrArCrUrGrUdTdC	88.1
sense rArCrArUrArUrGrCrCrUrGrGrArCrArUrCrCrUdTdT / antisense rArGrGrArUrGrUrCrCrArGrGrCrArUrArUrGrUdTdA	75.7
sense rArCrArUrCrCrUrGrArArGrGrArArArArGrUrGdTdT / antisense rCrArCrUrUrUrUrCrCrUrUrCrArGrGrArUrGrUdCdC	46.2
sense rArCrArUrUrGrArUrArGrUrCrCrCrUrUrGrArAdTdT / antisense rUrUrCrArArGrGrGrArCrUrArUrCrArArUrGrUdTdG	90.8
sense rArCrCrArUrCrCrArUrGrGrArGrCrArGrCrUrGdTdT / antisense rCrArGrCrUrGrCrUrCrCrArUrGrGrArUrGrGrUdCdC	62.1
sense rArCrCrCrArGrGrGrUrArArCrArUrArUrGrCrCdTdT / antisense rGrGrCrArUrArUrGrUrUrArCrCrCrUrGrGrGrUdGdT	39.6
sense rArCrCrCrUrUrArCrArArUrGrCrGrCrCrCrArCdTdT / antisense rGrUrGrGrGrCrGrCrArUrUrGrUrArArGrGrGrUdAdG	47.4
sense rArCrCrUrGrArGrGrUrArUrArArGrCrUrCrUrCdTdT / antisense rGrArGrArGrCrUrUrArUrArCrCrUrCrArGrGrUdCdT	80.9
sense rArCrGrUrGrGrArCrArCrCrCrArGrGrGrUrArAdTdT / antisense rUrUrArCrCrCrUrGrGrGrUrGrUrCrCrArCrGrUdTdG	83
sense rArGrArCrCrUrGrArGrGrUrArUrArArGrCrUrCdTdT / antisense rGrArGrCrUrUrArUrArCrCrUrCrArGrGrUrCrUdTdC	71.7
sense rArGrArGrUrUrCrCrCrCrArGrUrGrGrCrUrArCdTdT / antisense rGrUrArGrCrCrArCrUrGrGrGrGrArArCrUrCrUdAdG	87
sense rArGrCrUrGrGrArArCrArGrUrArUrArUrGrArAdTdT / antisense rUrUrCrArUrArUrArCrUrGrUrUrCrCrArGrCrUdGdC	97.5
sense rArGrGrArGrArArCrCrCrArArCrArUrUrGrArUdTdT / antisense rArUrCrArArUrGrUrUrGrGrGrUrUrCrUrCrCrUdAdG	94.2
sense rArGrGrUrArUrArArGrCrUrCrUrCrGrCrUrArGdTdT / antisense rCrUrArGrCrGrArGrArGrCrUrUrArUrArCrCrUdCdA	92.4
sense rArGrUrArUrArUrGrArArGrArCrCrUrGrArGrGdTdT / antisense rCrCrUrCrArGrGrUrCrUrUrCrArUrArUrArCrUdGdT	77.2
sense rArGrUrGrGrCrUrArCrCrCrUrUrArCrArArUrGdTdT / antisense rCrArUrUrGrUrArArGrGrGrUrArGrCrCrArCrUdGdG	76.9
sense rArGrUrGrGrUrCrUrGrCrCrCrUrGrUrArUrGrAdTdT / antisense rUrCrArUrArCrArGrGrGrCrArGrArCrCrArCrUdTdT	61.1
sense rArGrUrUrCrCrUrCrArCrGrCrCrCrUrGrCrUrAdTdT / antisense rUrArGrCrArGrGrGrCrGrUrGrArGrGrArArCrUdTdC	84.4
sense rArUrGrCrUrGrCrCrGrArGrCrUrCrUrGrGrArAdTdT / antisense rUrUrCrCrArGrArGrCrUrCrGrGrCrArGrCrArUdGdT	84.5

Substance	normalised inhibition (eCFP-eYFP dual reporter) [%]
sense rArUrGrGrArGrCrArGrCrUrGrGrArArCrArGrUdTdT / antisense rArCrUrGrUrUrCrCrArGrCrUrGrCrUrCrCrArUdGdG	84.5
sense rArUrGrUrCrArGrGrArCrCrArUrUrCrUrGrCrUdTdT / antisense rArGrCrArGrArArUrGrGrUrCrCrUrGrArCrArUdCdA	56.5
sense rCrArCrCrCrCrArArCrGrUrGrGrArCrArCrCrCdTdT / antisense rGrGrGrUrGrUrCrCrArCrGrUrUrGrGrGrGrUrGdAdT	11.6
sense rCrArGrArGrCrCrUrUrCrUrArGrGrArGrArArCdTdT / antisense rGrUrUrCrUrCrCrUrArGrArArGrGrCrUrCrUrGdGdA	75.5
sense rCrArGrGrArCrCrArUrUrCrUrGrCrUrCrUrCrCdTdT / antisense rGrGrArGrArGrCrArGrArArUrGrGrUrCrCrUrGdAdC	45.4
sense rCrArGrUrArUrArUrGrArArGrArCrCrUrGrArGdTdT / antisense rCrUrCrArGrGrUrCrUrUrCrArUrArUrArCrUrGdTdT	82.2
sense rCrArUrCrCrArGrArGrCrCrUrUrCrUrArGrGrAdTdT / antisense rUrCrCrUrArGrArArGrGrCrUrCrUrGrGrArUrGdGdA	78.6
sense rCrArUrGrCrUrGrCrCrGrArGrCrUrCrUrGrGrAdTdT / antisense rUrCrCrArGrArGrCrUrCrGrGrCrArGrCrArUrGdTdG	90.5
sense rCrArUrUrCrUrGrCrUrCrUrCrCrArUrCrCrArGdTdT / antisense rCrUrGrGrArUrGrGrArGrArGrCrArGrArArUrGdGdT	79.7
sense rCrCrArCrArGrUrGrArArGrUrUrCrCrUrCrArCdTdT / antisense rGrUrGrArGrGrArArCrUrUrCrArCrUrGrUrGrGdGdC	74.3
sense rCrCrArUrCrCrArUrGrGrArGrCrArGrCrUrGrGdTdT / antisense rCrCrArGrCrUrGrCrUrCrCrArUrGrGrArUrGrGdTdC	80.7
sense rCrCrCrArGrUrGrGrCrUrArCrCrCrUrUrArCrAdTdT / antisense rUrGrUrArArGrGrGrUrArGrCrCrArCrUrGrGrGdGdA	85.7
sense rCrCrCrCrArGrUrGrGrCrUrArCrCrCrUrUrArCdTdT / antisense rGrUrArArGrGrGrUrArGrCrCrArCrUrGrGrGrGdAdA	67.7
sense rCrCrCrUrGrCrUrArUrCrArCrCrCrCrArArCrGdTdT / antisense rCrGrUrUrGrGrGrGrUrGrArUrArGrCrArGrGrGdCdG	53.1
sense rCrCrUrGrGrArCrArUrCrCrUrGrArArGrGrArAdTdT / antisense rUrUrCrCrUrUrCrArGrGrArUrGrUrCrCrArGrGdCdA	74.2
sense rCrCrUrGrUrArUrGrArUrGrUrCrArGrGrArCrCdTdT / antisense rGrGrUrCrCrUrGrArCrArUrCrArUrArCrArGrGdGdC	42
sense rCrGrCrUrArGrArGrUrUrCrCrCrCrArGrUrGrGdTdT / antisense rCrCrArCrUrGrGrGrGrArArCrUrCrUrArGrCrGdAdG	86.9
sense rCrUrArUrCrArCrCrCrCrArArCrGrUrGrGrArCdTdT / antisense rGrUrCrCrArCrGrUrUrGrGrGrGrUrGrArUrArGdCdA	77.2
sense rCrUrCrCrArUrCrCrArGrArGrCrCrUrUrCrUrAdTdT / antisense rUrArGrArArGrGrCrUrCrUrGrGrArUrGrGrArGdAdG	81.9
sense rCrUrGrArGrGrUrArUrArArGrCrUrCrUrCrGrCdTdT / antisense rGrCrGrArGrArGrCrUrUrArUrArCrCrUrCrArGdGdT	75.8
sense rCrUrUrCrUrArGrGrArGrArArCrCrCrArArCrAdTdT / antisense rUrGrUrUrGrGrGrUrUrCrUrCrCrUrArGrArArGdGdC	86.1
sense rGrArArCrArCrArCrArUrGrCrUrGrCrCrGrArGdTdT / antisense rCrUrCrGrGrCrArGrCrArUrGrUrGrUrGrUrUrCdAdA	89.6
sense rGrArArCrArGrUrArUrArUrGrArArGrArCrCrUdTdT / antisense rArGrGrUrCrUrUrCrArUrArUrArCrUrGrUrUrCdCdA	86.9
sense rGrArArGrGrArArArArGrUrGrGrUrCrUrGrCrCdTdT / antisense rGrGrCrArGrArCrCrArCrUrUrUrUrCrCrUrUrCdAdG	63.3

Biological target: P2rx2 (rat)
Experiment: reporter assay of Huesken 2005
Conditions: siRNA

Substance	normalised inhibition (eCFP-eYFP dual reporter) [%]
sense rUrUrCrArCrArGrCrUrCrUrArCrCrUrGrCrCrAdTdT / antisense rUrGrGrCrArGrGrUrArGrArGrCrUrGrUrGrArAdCdC	51.7
sense rUrUrGrCrArArGrCrCrArGrArArGrArGrUrGrAdTdT / antisense rUrCrArCrUrCrUrUrCrUrGrGrCrUrUrGrCrArAdTdG	72.8
sense rUrUrGrCrCrArArGrUrArUrUrArCrArArGrArUdTdT / antisense rArUrCrUrUrGrUrArArUrArCrUrUrGrGrCrArAdAdC	56.7
